# Reference: patent US11884675B2, “Heterocyclic compounds as triggering receptor expressed on myeloid cells 2 agonists and methods of use” (AMGEN INC., priority 2020, dated 2024)
# Biological target: hTREM2 (Homo sapiens, UniProt Q9NZC2)
# Assay: TREM2 activity by cellular Syk phosphorylation (AlphaScreen/AlphaLISA) in TREM2/DAP12-HEK cells, used for Examples 1-305
# Format: cell-based
# Design: expressed in transfected cells
# Conditions: HEK293 Cells
# In short: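 Phospho-Syk (Tyr525/526) over total Syk quantified by AlphaScreen in lysates of cloned TREM2/DAP12-overexpressing HEK293 cells after 45 min compound treatment at room temperature, 1% final DMSO. Values expressed relative to 100 nM anti-TREM2 antibody (positive) and isotype IgG (negative) controls; curves fitted with 4-parameter logistic model.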
# Chain of hTREM2 (Q9NZC2 19-230): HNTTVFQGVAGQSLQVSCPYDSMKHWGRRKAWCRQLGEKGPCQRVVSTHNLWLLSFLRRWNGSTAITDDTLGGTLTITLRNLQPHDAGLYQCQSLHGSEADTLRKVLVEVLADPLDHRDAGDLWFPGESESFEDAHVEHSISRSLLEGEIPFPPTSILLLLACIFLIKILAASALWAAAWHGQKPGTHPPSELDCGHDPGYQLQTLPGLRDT
# Chain of hTREM2 (O43914 22-113 partner): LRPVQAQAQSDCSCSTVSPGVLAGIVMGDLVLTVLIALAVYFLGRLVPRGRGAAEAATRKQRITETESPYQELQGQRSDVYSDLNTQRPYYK
SMILES,EC50 [nM],hTREM2 Emax
"Cc1cc([C@H]2C[C@H](c3nc(-c4ccc(F)cc4F)c4ccc(C)nc4n3)CCO2)ccn1 [Example 278, 4-(2,4-difluorophenyl)-7-methyl-2-((2R,4R)-2-(2-methylpyridin-4-yl)tetrahydro-2H-pyran-4-yl)pyrido [2,3-d]pyrimidine]",500 to 3000,+++ (Emax>150 and ≤250)
"Cc1ccc2c(n1)nc(N1CCO[C@@H](c3cnn(C)c3)C1)nc2[C@H]1C[C@H](C(F)(F)F)C1 [Example 97, 7-methyl-2-((2S)-2-(1-methyl-1H-pyrazol-4-yl)-4-morpholinyl)-4-(trans-3-(trifluoromethyl)cyclobutyl)pyrido[2,3-d]pyrimidine]",500 to 3000,+ (Emax>45 and ≤100)
"Cc1nc2nc(N3CCO[C@@H](c4cnn(C)c4)C3)nc(N3CCC[C@@H](F)C3)c2nc1C (single isomer, unassigned) [Example 69]",500 to 3000,+ (Emax>45 and ≤100)
"Cc1ccc2cc(N3CCO[C@@H](c4cnn(C)c4)C3)nc(-c3ccc(Cl)cc3F)c2c1 [Example 236, (S)-4-(1-(4-chloro-2-fluorophenyl)-7-methylisoquinolin-3-yl)-2-(1-methyl-1H-pyrazol-4-yl)morpholine]",3000 to 100000,+++ (Emax>150 and ≤250)
"Cc1cc([C@@H]2CN(c3nc4nc(C)cnc4c([C@H]4C[C@H](C(F)(F)F)C4)n3)CCO2)cnn1 [Example 281, (R)-4-(7-methyl-4-((1r,3S)-3-(trifluoromethyl)cyclobutyl)pteridin-2-yl)-2-(6-methylpyridazin-4-yl)morpholine]",500 to 3000,+++ (Emax>150 and ≤250)
"Cc1ncc([C@@H]2C[C@H](c3nc(-c4ccc(Cl)cc4F)c4nc(C)c(C)nc4n3)CCO2)cn1 [Example 282, 4-(4-chloro-2-fluorophenyl)-6,7-dimethyl-2-((2S,4R)-2-(2-methylpyrimidin-5-yl)tetrahydro-2H-pyran-4-yl)pteridine]",500 to 3000,++ (Emax>100 and ≤150)
"Cc1nc2nc([C@H]3CCO[C@H](c4cnn(C)c4)C3)cc(-c3ccc(F)cc3F)c2nc1C [Example 265, 8-(2,4-difluorophenyl)-2,3-dimethyl-6-((2S,4S)-2-(1-methyl-1H-pyrazol-4-yl)tetrahydro-2H-pyran-4-yl)pyrido[2,3-b]pyrazine]",500 to 3000,+++ (Emax>150 and ≤250)
"Cc1ccc2c(-c3ccc(F)cc3F)nc([C@H]3CCO[C@@H](c4cnn(C)c4)C3)nc2n1 [Example 289, 4-(2,4-difluorophenyl)-7-methyl-2-((2R,4S)-2-(1-methyl-1H-pyrazol-4-yl)tetrahydro-2H-pyran-4-yl)pyrido[2,3-d] pyrimidine]",3000 to 100000,++ (Emax>100 and ≤150)
"Cc1nc2nc([C@@H]3CCO[C@@H](c4cnn(C)c4)C3)nc(-c3ccc(Cl)cc3F)c2nc1C [Example 179, 4-(4-chloro-2-fluorophenyl)-6,7-dimethyl-2-((2R,4R)-2-(1-methyl-1H-pyrazol-4-yl)tetrahydro-2H-pyran-4-yl)pteridine]",500 to 3000,++++ (Emax>250)
"Cc1nc2nc(N3CC[C@H](C(F)F)C3)nc(-c3ccc(F)cc3F)c2nc1C [Example 244, (S)-2-(3-(difluoromethyl)pyrrolidin-1-yl)-4-(2,4-difluorophenyl)-6,7-dimethylpteridine]",500 to 3000,+++ (Emax>150 and ≤250)
"Cc1nc2cc(N3CCO[C@@H](c4cnn(C)c4)C3)nc([C@H]3C[C@H](C(F)(F)F)C3)c2nc1C [Example 80, 2,3-dimethyl-7-((2S)-2-(1-methyl-1H-pyrazol-4-yl)-4-morpholinyl)-5-(trans-3-(trifluoromethyl)cyclobutyl)pyrido[3,4-b]pyrazine]",50 to 500,++ (Emax>100 and ≤150)
"Cc1nc2nc(N3CCO[C@@H](c4cnn(C)c4)C3)nc([C@@H]3C[C@H]3C(F)(F)F)c2nc1C [Example 57, 6,7-dimethyl-2-((2S)-2-(1-methyl-1H-pyrazol-4-yl)-4-morpholinyl)-4-((1R,2R)-2-(trifluoromethyl)cyclopropyl)pteridine]",500 to 3000,++ (Emax>100 and ≤150)
"Cc1ccc2c(C34CC(C(F)(F)F)(C3)C4)nc(N3CCO[C@@H](c4cnn(C)c4)C3)nc2n1 [Example 100, 7-methyl-2-((2S)-2-(1-methyl-1H-pyrazol-4-yl)-4-morpholinyl)-4-(3-(trifluoromethyl)bicyclo[1.1.1]pentan-1-yl)pyrido[2,3-d]pyrimidine]",50 to 500,++ (Emax>100 and ≤150)
"CC(C)N1Cc2c(cc(N3CCO[C@@H](c4cnn(C)c4)C3)nc2-c2ccc(Cl)cc2F)C1=O [Example 122, 4-(4-chloro-2-fluorophenyl)-6-((2S)-2-(1-methyl-1H-pyrazol-4-yl)-4-morpholinyl)-2-(2-propanyl)-2,3-dihydro-1H-pyrrolo[3,4-c]pyridin-1-one]",500 to 3000,+++ (Emax>150 and ≤250)

# The remaining lines, values ahead:
EC50 [nM],hTREM2 Emax,SMILES
50 to 500,++++ (Emax>250),"Cc1cc([C@@H]2C[C@H](c3nc(-c4ccc(Cl)cc4F)c4nc(C)c(C)nc4n3)CCO2)ccn1 (single isomer, unassigned) [Example 206]"
50 to 500,+++ (Emax>150 and ≤250),"Cc1ncc([C@@H]2CN(c3nc(-c4ccc(Cl)cc4F)c4cc(C)c(C)nc4n3)CCO2)cn1 (single isomer, unassigned) [Example 106]"
50 to 500,++ (Emax>100 and ≤150),"Cc1cnc2c(n1)nc(N1CCO[C@@H](c3cnn(C)c3)C1)nc2[C@H]1C[C@H](C(F)(F)F)C1 [Example 11, 7-methyl-2-((2S)-2-(1-methyl-1H-pyrazol-4-yl)-4-morpholinyl)-4-(trans-3-(trifluoromethyl)cyclobutyl)pteridine]"
≤ 50,+++ (Emax>150 and ≤250),"Cc1ccc2c(-c3ccc(F)cc3F)nc(N3CCO[C@@H](c4cnn(C5CC5)c4)C3)nc2n1 [Example 92, 2-((2S)-2-(1-cyclopropyl-1H-pyrazol-4-yl)-4-morpholinyl)-4-(2,4-difluorophenyl)-7-methylpyrido[2,3-d]pyrimidine]"
≤ 50,++++ (Emax>250),"Cc1ccc2c(-c3ccc(Cl)cc3F)nc([C@H]3CCO[C@@H](c4cnn(C5CC5)c4)C3)nc2n1 (single isomer, unassigned) [Example 197]"
≤ 50,+++ (Emax>150 and ≤250),"Cc1ncc([C@H]2CN(c3nc(-c4ccc(Cl)cc4F)c4cc(C)c(C)nc4n3)CCO2)cn1 (single isomer, unassigned) [Example 107]"
≤ 50,++ (Emax>100 and ≤150),"Cc1cc2c(nc(N3CCO[C@@H](c4cnn(C5CC5)c4)C3)nc2[C@H]2C[C@H](C(F)(F)F)C2)nc1C [Example 113, 2-((2S)-2-(1-cyclopropyl-1H-pyrazol-4-yl)-4-morpholinyl)-6,7-dimethyl-4-(trans-3-(trifluoromethyl)cyclobutyl)pyrido[2,3-d]pyrimidine]"
50 to 500,++ (Emax>100 and ≤150),"Cc1nc2nc(N3CCO[C@@H](c4cnn(C)c4)C3)nc(C3CCCC3)c2nc1C [Example 140, 4-cyclopentyl-6,7-dimethyl-2-((2S)-2-(1-methyl-1H-pyrazol-4-yl)-4-morpholinyl)pteridine]"
≤ 50,+++ (Emax>150 and ≤250),"Cc1nc2nc(N3CCO[C@@H](c4cnn(C)c4)C3)nc(C3CC4(C3)CC(F)(F)C4)c2nc1C [Example 46, 4-(6,6-difluorospiro[3.3]heptan-2-yl)-6,7-dimethyl-2-((2S)-2-(1-methyl-1H-pyrazol-4-yl)-4-morpholinyl)pteridine]"
≤ 50,+++ (Emax>150 and ≤250),"Cc1cc([C@H]2CN(c3nc(-c4ccc(Cl)cc4F)c4ncc(C)nc4n3)CCO2)ccn1 [Example 3, 4-(4-chloro-2-fluorophenyl)-7-methyl-2-((2S)-2-(2-methyl-4-pyridinyl)-4-morpholinyl)pteridine]"
50 to 500,++++ (Emax>250),"Cc1nc2nc(N3CCO[C@@H](c4cnn(C)c4)C3)nc(-c3ccc(Cl)cn3)c2nc1C [Example 291, (S)-4-(4-(5-chloropyridin-2-yl)-6,7-dimethylpteridin-2-yl)-2-(1-methyl-1H-pyrazol-4-yl)morpholine]"
≤ 50,+++ (Emax>150 and ≤250),"Cc1cc([C@@H]2C[C@H](c3nc(-c4ccc(F)cc4F)c4nc(C)c(C)nc4n3)CCO2)ccn1 [Example 252, 4-(2,4-difluorophenyl)-6,7-dimethyl-2-((2S,4R)-2-(2-methylpyridin-4-yl)tetrahydro-2H-pyran-4-yl)pteridine]"
50 to 500,+++ (Emax>150 and ≤250),"Cc1nc2nc([C@H]3CCO[C@@H](c4cnn(C5CC5)c4)C3)nc(-c3ccc(C(F)(F)F)nc3)c2nc1C [Example 300, 2-((2R,4S)-2-(1-cyclopropyl-1H-pyrazol-4-yl)tetrahydro-2H-pyran-4-yl)-6,7-dimethyl-4-(6-(trifluoromethyl)pyridin-3-yl)pteridine]"
50 to 500,++++ (Emax>250),"Cc1ccc2c(-c3ccc(Cl)cc3F)nc(N3CCO[C@@H](c4cnn(C5CC5)c4)C3)cc2n1 [Example 150, 5-(4-chloro-2-fluorophenyl)-7-((2S)-2-(1-cyclopropyl-1H-pyrazol-4-yl)-4-morpholinyl)-2-methyl-1,6-naphthyridine]"
≤ 50,++++ (Emax>250),"Cc1ccc(-c2nc([C@H]3CCO[C@@H](c4ccnc(C)c4)C3)nc3nc(C)c(C)cc23)c(F)c1 (single isomer, unassigned) [Example 222]"
≤ 50,+++ (Emax>150 and ≤250),"Cc1cnc2c(-c3ccc(Cl)cc3F)nc(N3CCO[C@@H](c4cnn(C5CC5)c4)C3)nc2n1 [Example 2, 4-(4-chloro-2-fluorophenyl)-2-((2S)-2-(1-cyclopropyl-1H-pyrazol-4-yl)-4-morpholinyl)-7-methylpteridine]"
